Laboratory results taken from patent US8414923B2, “Immobilization of bioactive molecules within a polymeric substrate” (priority 2007, dated 2013).
Several values for one entry are separate records, joined by “and”; a condition that tells them apart may be missing. Equal values may be shown once.

Assays:
[1] = patients under insulin treatment; cited from earlier work
[2] = cited from earlier work
[3] = test system: BALB/c mice; assay: Glycemia after oral insulin solution (not seized in polymer) in BALB/c mice; assay type: in vivo; conditions: for Glycemia: oral insulin solution 4 IU/kg, group averages (4 groups of 5 mice)
Experimental: Excipients: Zinc Chloride, glycerol, metacresol, Sodium hydroxide, Chloridic acid, and water suitable for injections. • The irradiation conditions ensuring the best quality of the final product has been described. • Its release or liberation under laboratory conditions and in laboratory animals has been studied. • Bioavailability in laboratory animals, has been studied. • Laboratory experimental pharmacological steps are included. The determination of glycemia in blood is performed employing the following apparatus:
Measuring type device: Accu-Chek Active
The measured values listed in the table are shown averaged in FIG. 1.
GLYCEMIA as a function of time, averaged in four groups of BALB/c mice (five mice in each group), to which oral insulin solution (4 IU/kg) was administered (insulin without been seized into polymer).

[4] = average action profile after subcutaneous injection

Biosynthetic human insulin
Frequency of changes in the levels of glucose in the blood [1]: < 1/1000
Action profile: Duration [2, 4]: 7 to 8 h
Action profile: Initial [2, 4]: within the first half hour
Bond to plasmatic proteins ([2]; except circulating insulin antibodies): No significative bond to plasmatic proteins
Average life (t½) of insulin in the bloodstream ([2]; in bloodstream): only of a few minutes
t½ ([2]; injected (subcutaneous) insulin, clinical studies, determined by absorption): 2 to 5 h
Change of glycemia in mice ([3]; 30 to 75 minutes after oral administration of insulin solution): slight diminution of glycemia
Glycemia ([3]; time 0 min): 100 mg/dL and 102 mg/dL and 105 mg/dL
Glycemia ([3]; time 15 min): 98 mg/dL and 97 mg/dL and 96 mg/dL
Glycemia ([3]; time 30 min): 101 mg/dL and 102 mg/dL and 103 mg/dL and 105 mg/dL
Glycemia ([3]; time 60 min): 90 mg/dL and 93 mg/dL and 98 mg/dL and 96 mg/dL
Glycemia ([3]; time 90 min): 93 mg/dL and 95 mg/dL and 90 mg/dL and 94 mg/dL
Glycemia ([3]; time 180 min): 104 mg/dL and 102 mg/dL and 105 mg/dL and 100 mg/dL
